Format in all cases: in vivo
Test [1] deals with Diabrotica balteata. Nature of the test: Example B2: Diabrotica balteata (corn root worm), maize sprouts, L2 larvae. The conditions noted are these: for mortality at 50 ppm: Concentration 50 ppm, Diabrotica balteata (Example B32); for percent control (mortality or growth inhibition) at 200 ppm: Diabrotica balteata, 96 h, application rate of 200 ppm, 4 days after infestation, read-out: control in at least one of the two categories (mortality or growth inhibition). How it is done: Maize sprouts placed onto an agar layer in 24-well microtiter plates were treated with aqueous test solutions prepared from 10,000 ppm DMSO stock solutions by spraying. After drying, the plates were infested with L2 larvae (6 to 10 per well). The samples were assessed for mortality and growth inhibition in comparison to untreated samples 4 days after infestation.

The test system of test [2] is Plutella xylostella. Nature of the test: Example B4: Plutella xylostella (diamond back moth), artificial diet, eggs. Particulars: for percent control (mortality or growth inhibition) at 200 ppm: Plutella xylostella, 192 h, application rate of 200 ppm, 8 days after infestation, read-out: control in at least one of the two categories (mortality or growth inhibition); for mortality at 50 ppm: Concentration 50 ppm, Plutella xylostella (Example B4). How it is done:
24-well microtiter plates with artificial diet were treated with aqueous test solutions prepared from 10′000 ppm DMSO stock solutions by pipetting. After drying, Plutella eggs were pipetted through a plastic stencil onto a gel blotting paper and the plate was closed with it. The samples were assessed for mortality and growth inhibition in comparison to untreated samples 8 days after infestation.

The subject of test [3] is Spodoptera littoralis. Briefly: Example B5: Spodoptera littoralis (Egyptian cotton leaf worm), cotton leaf discs, L1 larvae. The conditions noted are these: foliar, 72 h, application rate of 200 ppm, 3 days after infestation, read-out: control in at least one of the three categories (mortality, anti-feedant effect, or growth inhibition). How it is done:
Cotton leaf discs were placed onto agar in 24-well microtiter plates and sprayed with aqueous test solutions prepared from 10,000 ppm DMSO stock solutions. After drying the leaf discs were infested with five L1 larvae. The samples were assessed for mortality, anti-feeding effect, and growth inhibition in comparison to untreated samples 3 days after infestation. Control of Spodoptera littoralis by a test sample is given when at least one of the categories mortality, anti-feedant effect, and growth inhibition is higher than the untreated sample.

Test [4] relates to Chilo suppressalis. Nature of the test: Example B1: Chilo suppressalis (striped rice stemborer), artificial diet, L2 larvae. The conditions noted are these: 144 h, application rate of 200 ppm, 6 days after infestation, read-out: control in at least one of the three categories (mortality, anti-feedant effect, or growth inhibition). As to the method: 24-well microtiter plates with artificial diet were treated with aqueous test solutions prepared from 10,000 ppm DMSO stock solutions by pipetting. After drying, the plates were infested with L2 larvae (6-8 per well). The samples were assessed for mortality, anti-feeding effect, and growth inhibition in comparison to untreated samples 6 days after infestation. Control of Chilo suppressalis by a test sample is given when at least one of the categories mortality, anti-feedant effect, and growth inhibition is higher than the untreated sample.

Molecules are shown by their SMILES.

As usually defined, the mortality is the percentage killed. A higher mortality goes with a strong lethal effect. In test [1], `CC(NC(=O)c1cc(C(F)F)cc(C(F)(F)F)c1)c1nccnc1-c1ncccn1` (stereo not drawn) [P22 of WO 2020/070049, reference compound] came in with a mortality at 50 ppm of 80%.
Consider `CC(NC(=O)c1cc(C(F)(F)F)cc(C(F)(F)F)c1)c1nccnc1-c1cnccn1` (stereo not drawn) [Compound P1, N-[1-(3-pyrazin-2-ylpyrazin-2-yl)ethyl]-3,5-bis (trifluoromethyl)benzamide], for which the percent control (mortality or growth inhibition) at 200 ppm in test [2] and in test [1] was at least 80% in each case. Further, the percent control (mortality, anti-feedant effect or growth inhibition) at 200 ppm in test [3] and in test [4] was at least 80% in each case.
As to `C[C@H](NC(=O)c1cc(C(F)F)cc(C(F)(F)F)c1)c1nccnc1-c1cnccn1` [Compound E8, 3-(difluoromethyl)-N-[(1S)-1-(3-pyrazin-2-ylpyrazin-2-yl)ethyl]-5-(trifluoromethyl)benzamide], the percent control (mortality or growth inhibition) at 200 ppm in test [2] and in test [1] was at least 80% each time. In addition, the percent control (mortality, anti-feedant effect or growth inhibition) at 200 ppm in test [3] and in test [4] was at least 80% each time.
Regarding `CC(NC(=O)c1cc(C(F)(F)F)cc(S(C)(=O)=O)c1)c1nccnc1-c1cnc(C#N)cn1` (stereo not drawn) [Compound P39, N-[1-[3-(5-cyanopyrazin-2-yl)pyrazin-2-yl]ethyl]-3-methylsulfonyl-5-(trifluoromethyl)benzamide], the percent control (mortality or growth inhibition) at 200 ppm in test [2] is at least 80%. Besides, the percent control (mortality, anti-feedant effect or growth inhibition) at 200 ppm in test [3] and in test [4] was at least 80% throughout.
For `CC(NC(=O)c1cc(Cl)cc(Cl)c1)c1nccnc1-c1cnccn1` (stereo not drawn) [Compound P8, 3,5-dichloro-N-[1-(3-pyrazin-2-ylpyrazin-2-yl)ethyl]benzamide], the percent control (mortality or growth inhibition) at 200 ppm in test [2] and in test [1] was at least 80% throughout. Besides, the percent control (mortality, anti-feedant effect or growth inhibition) at 200 ppm in test [3] and in test [4] was at least 80% throughout.
As to `CC(NC(=O)c1cc(Cl)cc(SC(F)(F)F)c1)c1nccnc1-c1cnccn1` (stereo not drawn) [Compound P28, 3-chloro-N-[1-(3-pyrazin-2-ylpyrazin-2-yl)ethyl]-5-(trifluoromethylsulfanyl)benzamide], the percent control (mortality or growth inhibition) at 200 ppm in test [2] and in test [1] was at least 80% each time. Besides, in test [3], the percent control (mortality, anti-feedant effect or growth inhibition) at 200 ppm was at least 80%.
For `C[C@@H](c1nccnc1-c1cnccn1)N(C)C(=O)c1cc(I)cc(I)c1` [Compound E10, 3,5-diiodo-N-methyl-N-[(1S)-1-(3-pyrazin-2-ylpyrazin-2-yl)ethyl]benzamide], the percent control (mortality or growth inhibition) at 200 ppm in test [1] is at least 80%. Besides, the percent control (mortality, anti-feedant effect or growth inhibition) at 200 ppm in test [3] was at least 80%.
For the molecule `CC(NC(=O)c1cc(Cl)cc(C(F)(F)F)c1)c1nccnc1-c1cnccn1` (stereo not drawn) [Compound P6, 3-chloro-N-[1-(3-pyrazin-2-ylpyrazin-2-yl)ethyl]-5-(trifluoromethyl)benzamide], in test [2], the mortality at 50 ppm was determined as 100% and the percent control (mortality or growth inhibition) at 200 ppm was at least 80%. In addition, the percent control (mortality, anti-feedant effect or growth inhibition) at 200 ppm in test [3] was at least 80%. Moreover, the percent control (mortality, anti-feedant effect or growth inhibition) at 200 ppm in test [4] was at least 80%.
Regarding `C[C@@H](c1nccnc1-c1cnccn1)N(C)C(=O)c1cc(I)cc(C(F)(F)F)c1` [Compound E9, 3-iodo-N-methyl-N-[(1S)-1-(3-pyrazin-2-ylpyrazin-2-yl)ethyl]-5-(trifluoromethyl)benzamide], in test [1], the percent control (mortality or growth inhibition) at 200 ppm is at least 80%. Further, the percent control (mortality, anti-feedant effect or growth inhibition) at 200 ppm in test [3] was at least 80%.
For the molecule `C[C@H](NC(=O)c1cc(Br)cc(Br)c1)c1nccnc1-c1cnccn1` [Compound E6, 3,5-dibromo-N-[(1S)-1-(3-pyrazin-2-ylpyrazin-2-yl)ethyl]benzamide], the percent control (mortality or growth inhibition) at 200 ppm in test [2] and in test [1] was at least 80% each time. In test [3], the percent control (mortality, anti-feedant effect or growth inhibition) at 200 ppm is at least 80%.
For `CC(NC(=O)c1cc(C(F)(F)F)cc(C2(C#N)CC2)c1)c1nccnc1-c1ncccn1` (stereo not drawn) [P25 of WO 2020/201398, reference compound], in test [1], the mortality at 50 ppm is 50%.
With `CC(NC(=O)c1cc(C2CC2)cc(C(F)(F)F)c1)c1nccnc1-c1cnccn1` (stereo not drawn) [Compound P19, 3-cyclopropyl-N-[1-(3-pyrazin-2-ylpyrazin-2-yl)ethyl]-5-(trifluoromethyl)benzamide], in test [2], the mortality at 50 ppm turned out to be 100% and the percent control (mortality or growth inhibition) at 200 ppm is at least 80%. In test [1], the percent control (mortality or growth inhibition) at 200 ppm was at least 80%. Besides, in test [4], the percent control (mortality, anti-feedant effect or growth inhibition) at 200 ppm is at least 80%.
As to `CC(NC(=O)c1cc(C(F)(F)F)cc(S(=O)(=O)C(F)(F)F)c1)c1nccnc1-c1cnccn1` (stereo not drawn) [Compound P22, N-[1-(3-pyrazin-2-ylpyrazin-2-yl)ethyl]-3-(trifluoromethyl)-5-(trifluoromethylsulfonyl)benzamide], in test [2], the percent control (mortality or growth inhibition) at 200 ppm is at least 80%. Further, the percent control (mortality, anti-feedant effect or growth inhibition) at 200 ppm in test [4] is at least 80%.
Consider `CC(NC(=O)c1cc(I)cc(C(F)(F)F)c1)c1nccnc1-c1cnccn1` (stereo not drawn) [Compound P23, 3-iodo-N-[1-(3-pyrazin-2-ylpyrazin-2-yl)ethyl]-5-(trifluoromethyl)benzamide], for which the percent control (mortality or growth inhibition) at 200 ppm in test [2] and in test [1] was at least 80% throughout. In addition, the percent control (mortality, anti-feedant effect or growth inhibition) at 200 ppm in test [3] is at least 80%.
In the case of `C[C@@H](c1nccnc1-c1cnccn1)N(C)C(=O)c1cc(C(F)F)cc(C(F)(F)F)c1` [Compound E13, 3-(difluoromethyl)-N-methyl-N-[(1S)-1-(3-pyrazin-2-ylpyrazin-2-yl)ethyl]-5-(trifluoromethyl)benzamide], in test [1], the percent control (mortality or growth inhibition) at 200 ppm is at least 80%. Moreover, the percent control (mortality, anti-feedant effect or growth inhibition) at 200 ppm in test [3] was at least 80%.
As for `CC(c1nccnc1-c1cnccn1)N(C)C(=O)c1cc(Cl)cc(C(F)(F)F)c1` (stereo not drawn) [Compound P30, 3-chloro-N-methyl-N-[1-(3-pyrazin-2-ylpyrazin-2-yl)ethyl]-5-(trifluoromethyl)benzamide], the percent control (mortality or growth inhibition) at 200 ppm in test [2] and in test [1] was at least 80% in each case. The percent control (mortality, anti-feedant effect or growth inhibition) at 200 ppm in test [4] is at least 80%.
As to `CC(NC(=O)c1cc(Cl)cc(OC(F)(F)F)c1)c1nccnc1-c1cnccn1` (stereo not drawn) [Compound P9, 3-chloro-N-[1-(3-pyrazin-2-ylpyrazin-2-yl)ethyl]-5-(trifluoromethoxy)benzamide], the percent control (mortality or growth inhibition) at 200 ppm in test [2] and in test [1] was at least 80% throughout. The percent control (mortality, anti-feedant effect or growth inhibition) at 200 ppm in test [4] was at least 80%.
As to `CC(NC(=O)c1cc(Cl)cc(S(=O)(=O)C(F)(F)F)c1)c1nccnc1-c1cnccn1` (stereo not drawn) [Compound P33, 3-chloro-N-[1-(3-pyrazin-2-ylpyrazin-2-yl)ethyl]-5-(trifluoromethylsulfonyl)benzamide], the percent control (mortality or growth inhibition) at 200 ppm in test [2] is at least 80%. Besides, the percent control (mortality, anti-feedant effect or growth inhibition) at 200 ppm in test [4] is at least 80%.
In turn, `CC(NC(=O)c1cc(C2CC2)cc(C(F)(F)F)c1)c1nccnc1-c1ccccn1` (stereo not drawn) [P33 of WO 2020/201398, reference compound] displayed a mortality at 50 ppm in test [2] of 50%.
With `C[C@H](NC(=O)c1cc(I)cc(I)c1)c1nccnc1-c1cnccn1` [Compound E5, 3,5-diiodo-N-[(1S)-1-(3-pyrazin-2-ylpyrazin-2-yl)ethyl]benzamide], the percent control (mortality or growth inhibition) at 200 ppm in test [2] and in test [1] was at least 80% in each case. The percent control (mortality, anti-feedant effect or growth inhibition) at 200 ppm in test [3] is at least 80%.
For `CC(NC(=O)c1cc(Br)cc(Br)c1)c1nccnc1-c1cnccn1` (stereo not drawn) [Compound P15, 3,5-dibromo-N-[1-(3-pyrazin-2-ylpyrazin-2-yl)ethyl]benzamide], the percent control (mortality or growth inhibition) at 200 ppm in test [2] and in test [1] was at least 80% throughout.
In test [2], `CC(NC(=O)c1cc(Cl)cc(C(F)(F)F)c1)c1nccnc1-c1ccccn1` (stereo not drawn) [Example 1 of WO 2021/068179, reference compound] came in with a mortality at 50 ppm of 0%.
`CC(NC(=O)c1cc(Br)cc(Br)c1)c1nccnc1-c1cnc(Cl)cn1` (stereo not drawn) [Compound P36, 3,5-dibromo-N-[1-[3-(5-chloropyrazin-2-yl)pyrazin-2-yl]ethyl]benzamide]: the percent control (mortality or growth inhibition) at 200 ppm in test [2] and in test [1] was at least 80% each time. The percent control (mortality, anti-feedant effect or growth inhibition) at 200 ppm in test [3] was at least 80%.

Values taken from US20240287047A1, “PESTICIDALLY ACTIVE DIAZINE-AMIDE COMPOUNDS” (SYNGENTA CROP PROTECTION AG, priority 2021, published 2024).
